“Also recorded” adds a separate entry of the source.
How the values were obtained:
[1] = tested on: Thioacetamide (TAA)-Induced Fibrosis; assay: Thioacetamide (TAA)-induced fibrosis, model for hepatic cirrhosis; type: in vivo; conditions: 5 mg/kg co-administered with TAA, 10 weeks, Wistar rats
Description: Liver fibrosis was induces in Wistar rats by intraperitoneal injections of TAA […] body weight) twice per week during 10 weeks. I.p. application of TAA results in hepatic centrolobular necrosis, elevated transaminase activity and robust liver fibrosis. Treatment groups further included co-administration of Aramchol (1 or 5 mg/kg orally) or obaticholic acid (OCA, 5 mg/kg). A control group of saline-treated rats (in the absence of TAA administration) was further included. Rats were then sacrificed, and livers were observed macroscopically for signs of cirrhosis and necrotic lesions, and microscopically, following Masson Goldner staining. The fibrosis score, calculated at a scale of 0-4, was determined for each sample, wherein 0 indicates no fibrosis and 4 indicates advanced fibrosis and cirrhosis.

COL1A1 = COL1A1 expression in LX-2 human hepatic stellate cells; type: cell-based; conditions: LX-2 cells, Aramchol 10 mM, 24 hours, RNA
Description: (§1) LX2 cells (150.000 cells per well) were plated in DMEM media containing antibiotics, glutamine and bovine fetal serum. After 24 hours incubation, media was changed to 0% serum and incubated for an additional period of 16 hours. Then, Aramchol (10 mM) was added and 24 hours later RNA was extracted with Trizol.

PPAR-γ = PPAR-γ expression in LX-2 human hepatic stellate cells; type: cell-based; conditions: LX-2 cells, Aramchol 10 mM, 24 hours, RNA
Description: as §1

[2] = tested on: LX-2 human hepatic stellate cells; assay: Collagen production from LX-2 human hepatic stellate cells; type: cell-based; conditions: LX-2 cells, relative to a DMSO control
[3] = tested on: 0.1 MCD diet mouse model of NASH; assay: 0.1% methionine- and choline-deficient (0.1 MCD) diet mouse model of NASH; type: in vivo, C57B1/6 mice; conditions: 5 mg/Kg/day orally by gavage, 0.1 MCD-fed mice
Text: The study described below investigates the mechanism of action of Aramchol and its potential effect on fibrosis using the 0.1% methionine- and choline-deficient (0.1 MCD) diet mouse model of NASH.
C57B1/6 were fed the Methionine and Choline Deficient (MCD) and control diet and were sacrificed after 4 weeks. The MCD diet induces aminotransferase elevation and changes in hepatic histological features, characterized by steatosis, local inflammation, hepatocyte necrosis and fibrosis. These changes occur rapidly and are morphologically similar to those observed in human NASH. In this study the MCD diet contained 0.1% methionine to minimize and stabilize weight loss. At the end of the second week, after verification of established NASH, 0.1 MCD-fed mice were treated orally by gavage with Aramchol (5 mg/Kg/day) or vehicle (n=10, each condition). Control diet-fed mice were also treated with vehicle for same duration (n=10). At the end of the experiment, blood and liver samples were obtained. A diagram of the experimental design is shown below: […]

CCCCCCCCCCCCCCCCCCCC(=O)N[C@H]1CCC2(C)C(CC(O)C3C2C[C@H](O)C2(C)C(C(C)CCC(=O)O)CCC32)C1 (stereo in doubt) [Aramchol, 3β-arachidylamido-7α, 12α-dihydroxy-5β-cholan-24-oic acid]
TAA induced fibrosis [1]: significantly prevented; also recorded: significantly inhibited
collagen distribution in the tissue (FIG. 2) [1]: reduced significantly
development of necrosis and cirrhosis (macroscopic, FIG. 1) [1]: reduced significantly; also recorded: significantly inhibited
fibrotic score (Masson Goldner staining, scale 0-4, FIG. 2) [1]: reduced significantly
COL1A1 expression (COL1A1): significantly reduced
PPARγ expression (PPAR-γ): up-regulation
collagen production [2]: significantly down regulates
FA(16:1)/FA(16:0) ratio [3]: marked decrease
SCD1 activity [3]: reduced
SCD1 expression [3]: marked decrease
content of total oxFA including oxLA [3]: marked reduction
hepatic content of diglycerides (DG) and TG [3]: reduction
oxidative stress [3]: improved
total content of monounsaturated FA (MUFA) [3]: marked decrease
fibrosis in the liver (sirius red) ([3]; from end of week 2 to week 4): significantly down regulates/normalizes; also recorded: reduction
infiltration and activation status of macrophages in the liver (F4/80 and CD64) ([3]; from end of week 2 to week 4): significantly down regulates/normalizes; also recorded: reduction
steatosis in the liver (Sudan III) ([3]; from end of week 2 to week 4): significantly down regulates; also recorded: reduction
GSH/GSSG ratio ([3]; liver): elevates; also recorded: normalization
glutathione ([3]; liver): significantly up regulates
collagen in the liver ([3]; liver extract): significantly down regulates

From patent publication US20190275061A1, “INHIBITION OF FIBROSIS IN NON ALCOHOL FATTY LIVER DISEASE PATIENTS” (GALMED RESEARCH AND DEVELOPMENT LTD, priority 2016, published 2019)
